Measurements: patent US12071404B2, “Aza (indole)-, benzothiophene-, and benzofuran-3-sulfonamides” (UCB Pharma GmbH, priority 2016, dated 2024)

What follows are compounds tested against GPR17 (Homo sapiens, UniProt Q13304) (assay: Calcium mobilization functional assay (GPR17 Ca2+ assay)). Settings: CHO hGPR17 cells, inhibition of 50 nM MDL29,951, Calcium 5 dye, FLIPR; read-out: Ca2+ assay pIC50 (converted).
Chain of GPR17 (Q13304 whole entry): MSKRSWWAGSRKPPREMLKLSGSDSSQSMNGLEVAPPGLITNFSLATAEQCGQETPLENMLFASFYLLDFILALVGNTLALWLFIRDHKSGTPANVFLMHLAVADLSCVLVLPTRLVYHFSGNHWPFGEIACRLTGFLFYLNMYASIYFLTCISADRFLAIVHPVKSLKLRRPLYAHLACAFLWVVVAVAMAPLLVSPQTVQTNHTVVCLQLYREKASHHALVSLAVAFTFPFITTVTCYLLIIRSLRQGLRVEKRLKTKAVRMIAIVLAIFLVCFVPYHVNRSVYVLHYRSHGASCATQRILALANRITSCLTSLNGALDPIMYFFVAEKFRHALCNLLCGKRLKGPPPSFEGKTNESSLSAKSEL
Format: cell-based
Parameters: host or cells: Flp-In T-REx CHO
Experimental: Flp-In T-REx CHO cells stably expressing human GPR17 receptor (CHO hGPR17) from Evi Kostenis' lab (Bonn University, Germany) were cultured at 37° C. in a humidified atmosphere of 5% CO2. Cells were grown in DMEM with Nutrient Mixture F-12 supplemented with hygromycin B (500 μg/mL) and blasticidin (30 μg/mL). Expression from the Flp-In locus was induced by treatment with doxycycline (1 μg/mL) for 16-20 h prior assays.
GPR17 is a G-protein coupled receptor. GPR17 activation triggers Gq-type G-protein signaling resulting in endoplasmic reticulum calcium (Ca^2+) stores release in cytosol which can be measured using Calcium 5 dye, a fluorescent indicator dye of cytosolic Ca^2+ levels. All Examples were tested in GPR17 Ca^2+ assay to determine (screen) their GPR17 modulating activity.
CHO hGPR17 were defrosted and seeded at a density of 20,000 cells per well into black 384-well plates with clear bottom. Cells were incubated overnight at 37° C. in a humidified atmosphere of 5% CO2. Sixteen to twenty hours after seeding, CHO hGPR17 were loaded for 60 min with Calcium 5 dye, a cytosolic Ca^2+ indicator fluorescent dye, according to manufacturer's instructions. Fluorescent signal relative to cytosolic Ca^2+ concentration was recorded over time at room temperature in FLIPR Tetra reader. […] Then, 50 nM MDL29,951, a GPR17 agonist, was added to the cells. Inhibitory effects of varying concentrations test compounds were measured and resulting plC50s were determined. […] Analysis and curve fitting were performed in ActivityBase XE using XLfit 4-parameter logistic equation y=A+((B−A)/(1+((C/x)^D))) where A, B, C and D stand for minimum y, maximum y, IC50 and slope, respectively.
The activities of the Example compounds tested are depicted in the table in Section B2B below. The activity ranges A, B and C refer to plC50 values in the Ca^2+ assay as follows: “A”: plC50<7.5, “B”: plC50 7.5<x≤ 8.5, “C”: plC50>8.5
With O=S(=O)(Nc1cccc2nsnc12)c1c[nH]c2c3c(ccc12)CCC3 [Compound I-74] the IC50 was > 31.6 nM.
In the case of O=S(=O)(Nc1ccc(Cl)cc1F)c1c[nH]c2c1ccc1ccccc12 [Compound I-45, N-(4-chloro-2-fluorophenyl)-1H-benzo[g]indole-3-sulfonamide], the IC50 is reported as > 31.6 nM.
N#Cc1ccc(NS(=O)(=O)c2c[nH]c3ncc(Cl)cc23)cc1 [Compound I-77, 5-chloro-N-(4-cyanophenyl)-1H-pyrrolo[2,3-b]pyridine-3-sulfonamide] was tested, and the IC50 was > 31.6 nM.
In the case of Cc1cc(NS(=O)(=O)c2c[nH]c3cc(Cl)ccc23)c(F)cc1Cl [Compound I-214, 6-chloro-N-(4-chloro-2-fluoro-5-methylphenyl)-1H-indole-3-sulfonamide], the IC50 is reported as > 31.6 nM.
O=S(=O)(Nc1cc(F)cc(F)c1)c1c[nH]c2cc(Cl)ccc12 [Compound I-21, 6-chloro-N-(3,5-difluorophenyl)-1H-indole-3-sulfonamide] was tested, and the IC50 was > 31.6 nM.
Cc1ccc2c(S(=O)(=O)Nc3cc(F)ccc3F)c[nH]c2c1 [Compound I-32, N-(2,5-difluorophenyl)-6-methyl-1H-indole-3-sulfonamide] was tested, and the IC50 was > 31.6 nM.
N#Cc1cc(F)c(NS(=O)(=O)c2c[nH]c3c(Cl)cccc23)cc1F [Compound I-117, 7-chloro-N-(4-cyano-2,5-difluorophenyl)-1H-indole-3-sulfonamide] was tested, and the IC50 was > 31.6 nM.
With O=S(=O)(Nc1ccc(Cl)cc1F)c1c[nH]c2cc(C(F)(F)F)ccc12 [Compound I-53, N-(4-chloro-2-fluorophenyl)-6-(trifluoromethyl)-1H-indole-3-sulfonamide] the IC50 was > 31.6 nM.
With N#Cc1ccc(NS(=O)(=O)c2c[nH]c3cc(C(F)(F)F)ccc23)cc1 [Compound I-190, N-(4-cyanophenyl)-6-(trifluoromethyl)-1H-indole-3-sulfonamide] the IC50 was < 3.16 nM.
Compound N#Cc1cc(F)c(NS(=O)(=O)c2c[nH]c3c(Br)cccc23)cc1F [Compound I-167, 7-bromo-N-(4-cyano-2,5-difluorophenyl)-1H-indole-3-sulfonamide] has an IC50 of 3.16 to 31.6 nM.
With O=S(=O)(Nc1cccc2c1OCO2)c1c[nH]c2cc(F)ccc12 [Compound I-31, N-(1,3-benzodioxol-4-yl)-6-fluoro-1H-indole-3-sulfonamide] the IC50 was > 31.6 nM.
Work on N#Cc1cc(F)c(NS(=O)(=O)c2c[nH]c3nc(Cl)ccc23)cc1F [Compound I-176, 6-chloro-N-(4-cyano-2,5-difluorophenyl)-1H-pyrrolo[2,3-b]pyridine-3-sulfonamide] yielded an IC50 of 3.16 to 31.6 nM.
For COc1ccc2c(S(=O)(=O)Nc3cc4c(cc3F)OC(F)(F)O4)c[nH]c2c1 [Compound I-71, 6-methoxy-N-(2,2,6-trifluoro-1,3-benzodioxol-5-yl)-1H-indole-3-sulfonamide], the IC50 was > 31.6 nM.
For O=S(=O)(Nc1ccc(Cl)cc1F)c1c[nH]c2cc(F)ccc12 [Compound I-51, N-(4-chloro-2-fluorophenyl)-6-fluoro-1H-indole-3-sulfonamide], the IC50 was > 31.6 nM.
With O=S(=O)(Nc1cc(F)c(F)cc1F)c1c[nH]c2ncc(I)cc12 [Compound I-103, 5-iodo-N-(2,4,5-trifluorophenyl)-1H-pyrrolo[2,3-b]pyridine-3-sulfonamide] the IC50 was > 31.6 nM.
For O=S(=O)(Nc1ccc(Br)cc1)c1c[nH]c2cc(Cl)ccc12 [Compound I-218, N-(4-bromophenyl)-6-chloro-1H-indole-3-sulfonamide], the IC50 was > 31.6 nM.
For O=S(=O)(Nc1ccc(F)c2nonc12)c1c[nH]c2cc(Cl)ccc12 [Compound I-197, 6-chloro-N-(7-fluoro-2,1,3-benzoxadiazol-4-yl)-1H-indole-3-sulfonamide], the IC50 was > 31.6 nM.
For O=S(=O)(Nc1cccc2nsnc12)c1c[nH]c2cc(OCc3ccccc3)ccc12 [Compound I-156, N-(2,1,3-benzothiadiazol-4-yl)-6-(benzyloxy)-1H-indole-3-sulfonamide], the IC50 was > 31.6 nM.
With O=S(=O)(Nc1cc(F)ccc1F)c1c[nH]c2cc3c(cc12)OCO3 [Compound I-30, N-(2,5-difluorophenyl)-5H-[1,3]dioxolo[4,5-f]indole-7-sulfonamide] the IC50 was > 31.6 nM.
With O=S(=O)(Nc1ccc(S(F)(F)(F)(F)F)cc1)c1c[nH]c2cc(Cl)ccc12 [Compound I-217, 6-chloro-N-[4-(pentafluoro-lambda6-sulfanyl)phenyl]-1H-indole-3-sulfonamide] the IC50 was > 31.6 nM.
For COc1ccc2c(S(=O)(=O)Nc3cccc4nsnc34)c[nH]c2c1 [Compound I-64, N-(2,1,3-benzothiadiazol-4-yl)-6-methoxy-1H-indole-3-sulfonamide], the IC50 was > 31.6 nM.
With N#Cc1ccc(NS(=O)(=O)c2c[nH]c3cc4c(cc23)OCO4)cc1 [Compound I-19, N-(4-cyanophenyl)-5H-[1,3]dioxolo[4,5-f]indole-7-sulfonamide] the IC50 was > 31.6 nM.
With O=S(=O)(Nc1cccc2nsnc12)c1c[nH]c2ccccc12 [Compound I-106, N-(2,1,3-benzothiadiazol-4-yl)-1H-indole-3-sulfonamide] the IC50 was > 31.6 nM.
In the case of Cc1cc2c(S(=O)(=O)Nc3cc(F)ccc3F)c[nH]c2cc1Br [Compound I-27, 6-bromo-N-(2,5-difluorophenyl)-5-methyl-1H-indole-3-sulfonamide], the IC50 is reported as > 31.6 nM.
CS(=O)(=O)c1ccc2c(S(=O)(=O)Nc3ccc4c(c3)OC(F)(F)O4)c[nH]c2c1 [Compound I-36, N-(2,2-difluoro-1,3-benzodioxol-5-yl)-6-(methylsulfonyl)-1H-indole-3-sulfonamide] was tested, and the IC50 was > 31.6 nM.
In the case of O=S(=O)(Nc1ccc2nsnc2c1)c1c[nH]c2cc(C(F)(F)F)ccc12 [Compound I-192, N-(2,1,3-benzothiadiazol-5-yl)-6-(trifluoromethyl)-1H-indole-3-sulfonamide], the IC50 is reported as < 3.16 nM.
O=S(=O)(Nc1cccc(F)c1F)c1c[nH]c2cc(Cl)ccc12 [Compound I-205, 6-chloro-N-(2,3-difluorophenyl)-1H-indole-3-sulfonamide] was tested, and the IC50 was > 31.6 nM.
O=S(=O)(Nc1cc(F)c(F)cc1F)c1c[nH]c2cc(F)ccc12 [Compound I-41, 6-fluoro-N-(2,4,5-trifluorophenyl)-1H-indole-3-sulfonamide] was tested, and the IC50 was > 31.6 nM.
N#Cc1ccc(NS(=O)(=O)c2c[nH]c3cc(Cl)ccc23)c2nsnc12 [Compound I-163, 6-chloro-N-(7-cyano-2,1,3-benzothiadiazol-4-yl)-1H-indole-3-sulfonamide] was tested, and the IC50 was > 31.6 nM.
For O=S(=O)(Nc1c(F)ccc2nsnc12)c1c[nH]c2cc(Cl)ccc12 [Compound I-131, 6-chloro-N-(5-fluoro-2,1,3-benzothiadiazol-4-yl)-1H-indole-3-sulfonamide], the IC50 was > 31.6 nM.
In the case of N#Cc1ccc(NS(=O)(=O)c2c[nH]c3cc(Cl)ccc23)nc1 [Compound I-61, 6-chloro-N-(5-cyanopyridin-2-yl)-1H-indole-3-sulfonamide], the IC50 is reported as > 31.6 nM.
For CC(C#N)c1ccc(NS(=O)(=O)c2c[nH]c3cc(Cl)ccc23)c(F)c1 (stereo not shown) [Compound I-207, 6-chloro-N-[4-(1-cyanoethyl)-2-fluorophenyl]-1H-indole-3-sulfonamide], the IC50 was > 31.6 nM.
O=S(=O)(Nc1ccc(I)cc1F)c1c[nH]c2cc(C(F)(F)F)ccc12 [Compound I-42, N-(2-fluoro-4-iodophenyl)-6-(trifluoromethyl)-1H-indole-3-sulfonamide] was tested, and the IC50 was > 31.6 nM.
For O=S(=O)(Nc1cc(F)ccc1F)c1c[nH]c2cc(F)ccc12 [Compound I-37, N-(2,5-difluorophenyl)-6-fluoro-1H-indole-3-sulfonamide], the IC50 was > 31.6 nM.
In the case of N#Cc1ccc(NS(=O)(=O)c2c[nH]c3cc(OCC4CCCO4)ccc23)c(F)c1 (stereo not shown) [Compound I-222, N-(4-cyano-2-fluorophenyl)-6-(tetrahydrofuran-2-ylmethoxy)-1H-indole-3-sulfonamide], the IC50 is reported as > 31.6 nM.
Work on O=S(=O)(Nc1cccc2c1OC(F)(F)O2)c1c[nH]c2nc(Br)ccc12 [Compound I-102, 6-bromo-N-(2,2-difluoro-1,3-benzodioxol-4-yl)-1H-pyrrolo[2,3-b]pyridine-3-sulfonamide] yielded an IC50 of 3.16 to 31.6 nM.
With N#Cc1cc(F)c(NS(=O)(=O)c2c[nH]c3cc(F)ccc23)cc1F [Compound I-165, N-(4-cyano-2,5-difluorophenyl)-6-fluoro-1H-indole-3-sulfonamide] the IC50 was < 3.16 nM.
